In US20200131144A1, “AMINE OR (THIO)AMIDE CONTAINING LXR MODULATORS” (Phenex-FXR GmbH, priority 2017, published 2020):

Key:
[1] = target: T1, LXRβ ligand-binding domain (LBD) (Homo sapiens, UniProt P55055, INS174Q); experiment: LXR Gal4 reporter transient transfection assay, mammalian two-hybrid, LBD-M2H Gal4β; assay type: cell-based; conditions: HEK293 cells; inverse agonist unless *
T1 construct: or LXR (amino acids 156-461); expressed in transfected cells; host or cells: HEK293
T1 sequence (P55055 with tags, fused parts or gaps INS174Q limits assumed): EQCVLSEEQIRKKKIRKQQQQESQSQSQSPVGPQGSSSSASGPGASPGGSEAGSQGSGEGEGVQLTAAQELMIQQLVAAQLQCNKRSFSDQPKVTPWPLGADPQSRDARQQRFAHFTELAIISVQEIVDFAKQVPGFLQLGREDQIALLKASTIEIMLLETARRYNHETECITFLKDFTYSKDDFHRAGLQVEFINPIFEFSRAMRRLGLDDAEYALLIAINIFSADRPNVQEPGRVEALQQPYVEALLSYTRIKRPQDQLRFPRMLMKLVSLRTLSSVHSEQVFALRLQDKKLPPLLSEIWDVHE
Procedure: (§1) The tested compounds were usually dissolved, tested and stored as 20 mM stock solutions in DMSO. Since sulfonyl acetic acid derivatives tend to decarboxylate under these conditions, these stock solutions were prepared, tested and stored as 20 mM DMSO stock solutions containing 100 mM trifluoroacetic acid (5 equivalents). Sulfonyl acetic acid derivatives are shelf stable as solid at rt for long time as reported by Griesbrecht et al. (Synlett 2010:374) or Faucher et al. (J. Med. Chem. 2004; 47:18).
(§2) LXR Gal4 Reporter Transient Transfection Assays
(§3) LXRα and LXRβ activity status was determined via detection of interaction with coactivator and corepressor proteins in mammalian two-hybrid experiments (M2H). For this, via transient transfection the full length (FL) proteins of LXRα (amino acids 1-447; NP005684; SEQ ID NO:1) or LXRβ-(amino acids 1-461; NP009052; SEQ ID NO:2) or the ligand-binding domains (LBD) of LXRα (amino acids 155-447 SEQ ID NO:3) or LXR (amino acids 156-461; SEQ ID NO:4) were expressed from pCMV-AD (Stratagene) as fusions to the transcriptional activation domain of NFkB. As cofactors, domains of either the steroid receptor coactivator 1 (SRC1; amino acids 552-887; SEQ ID NO:5) or of the corepressor NCoR (amino acids 1906-2312; NP006302; SEQ ID NO:6) were expressed as fusions to the DNA binding domain of the yeast transcription factor GAL4 (from pCMV-BD; Stratagene). Interaction was monitored via activation of a coexpressed Firefly Luciferase Reporter gene under control of a promoter containing repetitive GAL4 response elements (vector pFRLuc; Stratagene). Transfection efficiency was controlled via cotransfection of constitutively active pRL-CMV Renilla reniformis luciferase reporter (Promega). HEK293 cells were grown in minimum essential medium (MEM) with 2 mM L-glutamine and Earle's balanced salt solution supplemented with 8.3% fetal bovine serum, 0.1 mM non-essential amino acids, 1 mM sodium pyruvate, at 37° C. in 5% CO2. 3.5×10^4 cells/well were plated in 96-well cell culture plates in growth medium supplemented with 8.3% fetal bovine serum for 16-20 h to—90% confluency. For transfection, medium was taken off and LXR and cofactor expressing plasmids as well as the reporter plasmids are added in 30 μL OPTIMEM/well including polyethylene-imine (PEI) as vehicle. Typical amounts of plasmids transfected/well: pCMV-AD-LXR (5 ng), pCMV-BD-cofactor (5 ng), pFR-Luc (100 ng), pRL-CMV (0.5 ng). Compound stocks were prepared in DMSO, prediluted in MEM to a total volume of 120 μL, and added 4 h after addition of the transfection mixture (final vehicle concentration not exceeding 0.2%). Cells were incubated for additional 16 h, lysed for 10 min in 1×Passive Lysis Buffer (Promega) and Firefly and Renilla luciferase activities were measured sequentially in the same cell extract using buffers containing D-luciferine and coelenterazine, respectively. Measurements of luminescence were done in a BMG-luminometer.

[2] = target: T2, LXRα ligand-binding domain (LBD) (Homo sapiens, UniProt Q13133); experiment: LXR Gal4 reporter transient transfection assay, mammalian two-hybrid, LBD-M2H Gal4α; assay type: cell-based; conditions: HEK293 cells; inverse agonist unless *
T2 construct: expressed in transfected cells; host or cells: HEK293
T2 sequence (Q13133 155-447): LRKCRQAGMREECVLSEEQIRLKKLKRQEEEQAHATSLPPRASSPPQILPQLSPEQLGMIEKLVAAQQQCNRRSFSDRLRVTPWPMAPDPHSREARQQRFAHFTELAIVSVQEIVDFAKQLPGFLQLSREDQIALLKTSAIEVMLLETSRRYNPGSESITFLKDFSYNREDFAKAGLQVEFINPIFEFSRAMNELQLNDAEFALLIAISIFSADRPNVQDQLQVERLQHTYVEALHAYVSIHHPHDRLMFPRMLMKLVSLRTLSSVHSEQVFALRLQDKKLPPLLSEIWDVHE
Procedure: as §1, §2, §3

[3] = target: T3, GST-LXRβ ligand-binding domain (Homo sapiens, UniProt P55055, INS174Q); experiment: TR-FRETβ activity assay (NCoA3 coactivator peptide recruitment); assay type: biochemical; conditions: 1 μM 24(S)-25-epoxycholesterol as prestimulating agonist; inverse agonist unless *
T3 construct: amino acids 156-461; NP009052; made in house; host or cells: E. coli
T3 sequence (P55055 with tags, fused parts or gaps INS174Q limits assumed): T1 sequence (P55055 with tags, fused parts or gaps INS174Q limits assumed)
How it was run: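 E. coli-expressed GST-LXRβ LBD (aa 156-461, 76 nM) with biotinylated NCoA3 peptide (400 nM), anti-GST-Tb cryptate donor and streptavidin-XL665 acceptor in 240 mM KCl, BSA, 0.002% Triton X-100. Equilibrated 1 h at 4° C; TR-FRET read at 615/665 nm, triplicates.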

[4] = Pharmacokinetics in mice after single oral dosing, blood and liver exposure by LC-MS; assay type: in vivo, mice (C57/bl6/J); conditions: single oral dose 20 mg/kg, time point 4 h; for Kp at 4 h: male, C57/bl6/J, mouse, liver/blood, read-out: liver/blood ratio
Procedure: The pharmacokinetics of the compounds was assessed in mice after single dosing and oral administrations. Blood and liver exposure was measured via LC-MS.
The study design was as follows:
Animals: C57/bl6/J (Janvier) males Diet: standard rodent chow Dose: 20 mg/kg Animal handling: animals were withdrawn from food at least 12 h before administration Design: single dose oral administration, n=3 animals per group Sacrifice: at stated time point (4, 12 or 24 h) after administration Bioanalytics: LC-MS of liver and blood samples

| Structure (SMILES) | EC50 [1] | EC50 [2] | EC50 [3] | Kp at 4 h [4] | blood/plasma exposure [4] | liver exposure [4] | FRETβ [3] |
| --- | --- | --- | --- | --- | --- | --- | --- |
| Cc1ccc2ccccc2c1CN(Cc1ccc(-c2cc(C(C)(C)C(=O)O)ccn2)cc1)Cc1ccc(C(F)(F)F)o1 [14/1] | < 100 nM | 100 to 1000 nM | 1000 to 10000 nM | – | – | – | – |
| Cc1ccc2ccccc2c1CN(Cc1ccc(-c2cccc(C(C)(C)C(=O)O)n2)cc1)Cc1ccc(C(F)(F)F)o1 [14/2] | < 100 nM | 100 to 1000 nM | 1000 to 10000 nM | – | – | – | – |
| COc1cc(-c2cccc(C(C)(C)C(=O)O)c2)cnc1CN(Cc1ccc(C(F)(F)F)o1)Cc1c(C)ccc2ccccc12 [22/4] | < 100 nM | 1000 to 10000 nM | 100 to 1000 nM | – | – | – | – |
| COc1cc(-c2cccc(C(C)(C)C(=O)O)c2)ccc1CN(Cc1ccc(C(F)(F)F)o1)Cc1c(C)ccc2ccccc12 [22/11] | < 100 nM | < 100 nM | 100 to 1000 nM | 4.8 | 0.57 µM | 2.75 µM | – |
| Cc1ccc(CN(Cc2ccc(-c3cccc(C(C)(C)C(=O)O)c3)cc2)Cc2ccc(C(F)(F)F)o2)c2ccccc12 [24/1] | < 100 nM | < 100 nM | < 100 nM | 8 | 2.25 µM | 18 µM | – |
| Cc1ccc2cccnc2c1CN(Cc1ccc(-c2cccc(C(C)(C)C(=O)O)c2)cc1)Cc1ccc(C(F)(F)F)o1 [24/2] | < 100 nM | 100 to 1000 nM | 1000 to 10000 nM | – | – | – | – |
| CC(C)(C(=O)O)c1cccc(-c2ccc(CN(Cc3ccc(C(F)(F)F)o3)Cc3cccc4nonc34)cc2)c1 [25/1] | < 100 nM | 100 to 1000 nM | – | – | – | – | B* |
| CC(C)(C(=O)O)c1cccc(-c2ccc(CN(Cc3ccc(C(F)(F)F)o3)C(=O)C34CC5CC(CC(C5)C3)C4)cc2)c1 [27/56] | < 100 nM | 100 to 1000 nM | – | – | – | – | B* |
| CC(C)(C(=O)O)c1cccc(-c2ccc(CN(Cc3ccc(C(F)(F)F)o3)Cc3c(C#N)ccc4ccccc34)cc2)c1 [27/67] | < 100 nM | < 100 nM | < 100 nM | 2.7 | 4.46 µM | 12.1 µM | – |
| CC(C)(C(=O)O)c1cccc(-c2ccc(CN(Cc3ccc(C(F)(F)F)o3)Cc3c(OC(F)F)ccc4ccccc34)cc2)c1 [27/68] | < 100 nM | < 100 nM | < 100 nM | – | – | – | – |
| CC(C)(C(=O)O)c1cccc(-c2ccc(CN(Cc3ccc(C(F)(F)F)o3)Cc3c(C(F)F)ccc4ccccc34)cc2)c1 [27/69] | < 100 nM | < 100 nM | 100 to 1000 nM | – | – | – | – |
| CC(C)(C(=O)O)c1cccc(-c2ccc(CN(Cc3ccc(C(F)(F)F)o3)C(=O)c3cccn4nccc34)cc2)c1 [27/70] | < 100 nM | 100 to 1000 nM | 100 to 1000 nM | – | – | – | – |
| CC(c1cccc2ccccc12)N(Cc1ccc(-c2cccc(S(=O)(=O)CC(=O)O)c2)cc1)Cc1ccc(C(F)(F)F)o1 (stereo not drawn) [Example 7, 2-((4′-(((1-(Naphthalen-1-yl)ethyl)((5-(trifluoromethyl)furan-2-yl)methyl)amino)methyl)-[1,1′-biphenyl]-3-yl)sulfonyl)acetic acid] | < 100 nM | < 100 nM | < 100 nM | – | – | – | – |

More lines, now with the values ahead:

| EC50 [1] | EC50 [2] | EC50 [3] | Kp at 4 h [4] | blood/plasma exposure [4] | liver exposure [4] | FRETβ [3] | Structure (SMILES) |
| --- | --- | --- | --- | --- | --- | --- | --- |
| < 100 nM | 100 to 1000 nM | 1000 to 10000 nM | – | – | – | – | Cc1cc(C)c(C(=O)N(Cc2ccc(-c3cccc(CCC(=O)O)c3)cc2)Cc2ccc(C(F)(F)F)o2)c(C)c1 [10/2] |
| 100 to 1000 nM | 100 to 1000 nM | > 10000 nM | – | – | – | – | Cc1cc(C)c(C(=O)N(Cc2ccc(-c3cccc(OCC(=O)O)c3)cc2)Cc2ccc(C(F)(F)F)o2)c(C)c1 [10/3] |
| < 100 nM | < 100 nM | 100 to 1000 nM | – | – | – | – | Cc1ccc2ccccc2c1CN(Cc1ccc(-c2ccnc(C(C)(C)C(=O)O)c2)cc1)Cc1ccc(C(F)(F)F)o1 [14/3] |
| 100 to 1000 nM | 1000 to 10000 nM | 1000 to 10000 nM | – | – | – | – | Cc1cc(C)c(CN(Cc2ccc(C(F)(F)F)o2)Cc2ccc(-c3cccc(S(=O)(=O)CC(=O)O)c3)cc2Cl)c(C)c1 [15/3] |
| < 100 nM | 100 to 1000 nM | 100 to 1000 nM | – | – | – | – | COc1cc(-c2cccc(C(C)(C)C(=O)O)c2)ccc1CN(Cc1ccc(C(F)(F)F)o1)Cc1c(C)cc(C)cc1C [22/12] |
| < 100 nM | < 100 nM | 100 to 1000 nM | 9.7 | 1.22 µM | 11.8 µM | – | Cc1ccc2ncccc2c1CN(Cc1ccc(-c2cccc(C(C)(C)C(=O)O)c2)cc1)Cc1ccc(C(F)(F)F)o1 [24/3] |
| < 100 nM | < 100 nM | 100 to 1000 nM | – | – | – | – | Cc1ncc2ccccc2c1CN(Cc1ccc(-c2cccc(C(C)(C)C(=O)O)c2)cc1)Cc1ccc(C(F)(F)F)o1 [24/4] |
| < 100 nM | < 100 nM | – | – | – | – | D* | Cc1nc2ccccc2c(CN(Cc2ccc(-c3cccc(C(C)(C)C(=O)O)c3)cc2)Cc2ccc(C(F)(F)F)o2)c1C [24/5] |
| < 100 nM | < 100 nM | 100 to 1000 nM | – | – | – | – | Cc1cc(C)c2ccccc2c1CN(Cc1ccc(-c2cccc(C(C)(C)C(=O)O)c2)cc1)Cc1ccc(C(F)(F)F)o1 [24/6] |
| < 100 nM | 100 to 1000 nM | 1000 to 10000 nM | – | – | – | – | Cc1ccc2ccccc2c1CN(Cc1ccc(-c2cncc(C(C)(C)C(=O)O)c2)cc1)Cc1ccc(C(F)(F)F)o1 [26/1] |
| < 100 nM | 100 to 1000 nM | 1000 to 10000 nM | – | – | – | – | Cc1ccc2ccccc2c1CN(Cc1ccc(-c2cccc(CC(C)(C)C(=O)O)c2)cc1)Cc1ccc(C(F)(F)F)o1 [26/2] |
| < 100 nM | 1000 to 10000 nM | 100 to 1000 nM | – | – | – | – | COC(=O)CS(=O)(=O)c1cc(-c2ccc(CN(Cc3ccc(C(F)(F)F)o3)Cc3c(C)cc(C)cc3C)cc2)cc(F)c1CO [Example 13] |
